Reference: US20260265694A1, “USE OF A VITISIN COMPOUND FOR THE PRODUCTION OF HEMATOPOIETIC CELLS” (ETABLISSEMENT FRANCAIS DU SANG, priority 2022, published 2026)

What was measured:
Type in all cases: cell-based, human
[1] = test system: CD34+ cells from peripheral blood; assay: AMPLIFICATION PROTOCOL: ex vivo amplification of hematopoietic progenitors
Description: This is a strategy for the amplification of hematopoietic progenitors. The culture is formed as follows: CD34^+ cells from peripheral blood are isolated (as indicated in section II.A.1), and cultured for 12 days in Stem Span II medium (Stem Cell Technologies) supplemented with cytokines: SCF 100 ng/mL, FLT3-L 100 ng/mL, TPO 20 ng/mL, G-CSF 10 ng/mL. The amplification product is analyzed by quantification of proliferation (count on Malassez slides) and phenotypic analysis of CD34^+ cell subpopulations by flow cytometry. […] Vitisin B is also compared with the following stilbene-type molecules at 10 μM concentration: Resveratrol, Pallidol, E-Viniferin, Ampelopsin, Oxyresveratrol, Picateatannol, Gnetol
At the end of the hematopoietic cell amplification protocol, an analysis of cell proliferation and amplification of immature and committed cell populations is performed.
Cell proliferation is evaluated by counting cells on Malassez slides with Trypan blue exclusion of dead cells.
The amplification of cell populations is based on a phenotypic analysis relating to the evolution of the expression of membrane markers CD34 and CD133 by flow cytometry. These markers make it possible to define more or less immature cell populations organized hierarchically as follows: CD34^+CD133^+->CD34^+CD133^neg->CD34^negCD133^neg. To this end, cells are incubated with anti-CD34 (1:100,000) (BD Pharmingen) and anti-CD133 (1:100,000) (BD Pharmingen) antibodies for 15 minutes. The cells are then rinsed with a PBS solution and centrifuged (430×g, 10 min, 4° C.). After resuspension of the cell pellets in PBS, the cells are analyzed by flow cytometry (FACSCantoll, Becton Dickinson, San Jose, CA).
The proportions of each phenotypic population thus observed and the total amount of cells make it possible to calculate the rate of amplification of the most immature cells (CD34^+CD133+) compared with the amplification of more committed progenitors (CD34^+CD133^neg and CD34^negCD133^neg).

[2] = test system: BFU-E and CFU-E erythrocyte progenitors from placental blood CD34+ cells; assay: CFC clonogenic assay of BFU-E and CFU-E during phase 1 of ERYTHRO 2; conditions: 10 μM
Description: • CTRL condition: cells are cultured for 7 days in the absence of vitisin B. • TEST condition: cells are cultured for 7 days in the presence of vitisin B at 10 μM.
To this end, the CFC (Colony Forming Cells) test is used. Committed progenitors are capable of generating colonies after culture in a semisolid medium composed of methylcellulose and supplemented with cytokines. Thus, committed progenitors (here BFU-Es and CFU-Es) produced during erythrocyte cultures can be counted.
This analysis of BFU-E and CFU-E production was performed only during phase 1 of PROTOCOL 2. Cells grown and harvested on days 4, 8 and 11 of phase 1 were seeded in a ready-to-use cytokine-supplemented methylcellulose H4034 kit (Stem Cell Technology, Meylan, France) at concentrations of 150 cells/[…] H4034 for day 4 and 300 cells/250

[3] = test system: SP cells (CD34+DCVlow) isolated from peripheral blood CD34+ cells; assay: ERYTHRO 1 PROTOCOL on sorted SP cells; conditions: SPs, 10 μM, as early as D7, FIG. 4B
Description: SP cells are identifiable by virtue of their property of expelling certain dyes such as Hoescht or Dye Cycle Violet (DCV)). This expulsion takes place by means of […] ATP Binding Cassette (ABCG2) pumps (Brunet de la Grange et al., 2013). To identify SP cells within previously isolated CD34^+ cells, they are incubated with a DCV dye (5 μM) in DMEM^+ medium (Dulbecco's Modified Eagle's Medium (DMEM), 2% FCS, 1% HEPES) for 2 h at 37° C. and in the dark. After incubation, all manipulations up to final cell sorting are performed on ice and in PBS^+ medium (PBS, 2% FCS), a glucose- and calcium-depleted medium which stops the expulsion pumps. […] CD34^+ cells having a low fluorescence intensity for the DCV marker (CD34^+ SP cells) are analyzed (UV 350 nm or violet 405 nm), sorted and recovered using an ARIA cell sorter (Becton Dickinson). […]
In order to test the effect of vitisin B in this context, the culturing is performed in the absence and presence of vitisin B: • CTRL condition: Absence of vitisin B throughout the entire protocol. • Test condition: Presence of vitisin B at 5, 10, 15, 20 or 30 μM for the entire duration of the protocol (phase 1+phase 2). During the culture protocol, the differentiation product is analyzed by quantifying proliferation (counting) and analyzing erythrocyte differentiation markers by means of flow cytometry, using the markers CD71 and CD235a. c. […]

Oc1ccc(C2Oc3ccc(/C=C/c4cc(O)cc5c4[C@H](c4cc(O)cc(O)c4)[C@@H](c4ccc(O)cc4)O5)cc3C2c2cc(O)cc3c2C(c2cc(O)cc(O)c2)C(c2ccc(O)cc2)O3)cc1 (stereo in doubt) [vitisin B, 5-[(2R,2'S,3R,3'S)-5-[(1E)-2-[(2S,3S)-3-(3,5-Dihydroxyphenyl)-2,3-dihydro-6-hydroxy-2-(4-hydroxyphenyl)-4-benzofuranyl]ethenyl]-2,2′,3,3′-tetrahydro-6′-hydroxy-2,2′-bis(4-hydroxyphenyl)[3,4′-bibenzofuran]-3′-yl]-1,3-benzenediol]
amplification of the total amount of progenitors of the CD34+ phenotype ([1]; 10 μM, 12-day culture, FIG. 1): up to 250%
amplification of the CD34+CD133neg subpopulation (erythrocyte potential) ([1]; 10 μM, FIG. 1): induces amplification
effect on the proportion and total amount of CD34+CD133neg cells ([1]; 10 μM, FIG. 2): convincing effect
effect of increasing the dose on total CD34+ and CD34+CD133neg populations ([1]; 50 μM versus 10 μM): no additional effect
appearance of primitive erythrocyte progenitors (BFU-Es) ([2]; clonogenic assay at D4, D8, D11, FIG. 7A): accelerated the appearance
appearance of more differentiated progenitors (CFU-Es) ([2]; clonogenic assay at D4, D8, D11, FIG. 7B): accelerated the appearance
reduction relative to the control in CD71 membrane expression [3]: up to 40%
